# Patent US8404664B2, “Phosphonated Rifamycins and uses thereof for the prevention and treatment of bone and joint infections” (Targanta Therapeutics, Inc., priority 2005, dated 2013)
# Marks after values point to notes of the source that are not given here.
# Assays:
# S. aureus ATCC 13709 [1] = assay: Antibacterial susceptibility (MIC), NCCLS broth microdilution; format: cell-based; settings: for MIC: Staphylococcus aureus, ATCC13709, read-out: Minimum inhibitory concentration, S. aureus ATCC 13709
# Experimental: (§1) Susceptibility of S. aureus strains to the known antibiotics and synthesized compounds was determined by following the guidelines set by NCCLS (M26-A). Compounds were diluted two-fold serially in DMSO and transferred to cation-adjusted Mueller Hinton broth (CAMHB; Becton Dickinson). 50 μL of compounds diluted in CAMHB was mixed with 100 μL of bacteria diluted in CAMHB in 96-well microtiter plates. The final concentration of micro-organisms in the assay was 5×10^5 c.f.u. per mL and the final concentration of DMSO in the assay was 1.25%. Assays were set up in duplicate and incubated at 37° C. for 18 h. The lowest concentration of compound that inhibited visible growth was reported as the minimum inhibitory concentration (MIC).
# [2] = test system: S. aureus ATCC 43300 (Fluoroquinolone sensitive MRSA); assay: as above; format: cell-based; settings: for MIC: Staphylococcus aureus, read-out: Minimum inhibitory concentration, S. aureus ATCC 43300
# Experimental: as §1
# [3] = test system: S. aureus BK85 (Fluoroquinolone resistant MRSA); assay: as above; format: cell-based; settings: for MIC: Staphylococcus aureus, read-out: Minimum inhibitory concentration, S. aureus BK85
# Experimental: as §1
# S. aureus RN4220 = assay: as above; format: cell-based; settings: CAMHB, 37° C., 18 h; for MIC: Staphylococcus aureus, RN4220, read-out: Minimum inhibitory concentration, S. aureus RN4220
# Experimental: as §1
# [4] = test system: S. aureus ATCC 13709 Novobiocin and Rifampicin resistant variant; assay: microbe, parasite or virus in culture; format: cell-based; settings: for MIC: Staphylococcus aureus, ATCC13709, read-out: Minimum inhibitory concentration, S. aureus ATCC 13709 variant; for Minimum inhibitory concentration, S. aureus ATCC 13709 variant: Novobiocin and Rifampicin resistant variant
# Experimental: as §1
# S. aureus ATCC 13709 [5] = assay: Antibacterial susceptibility (MIC) in the presence of serum; format: cell-based; settings: for MIC: Staphylococcus aureus, ATCC13709, 18 h
# Experimental: as §1
# Susceptibility testing experiments were also carried out in the presence of serum.
# These experiments were carried out similar to the susceptibility testing with the following modifications. 75 μL of compounds diluted in CAMHB was mixed with 75 μL of bacteria diluted in 100% serum from any given source (commercial pooled mouse serum (MS) and human serum (HS), Equitech-Bio Inc.) or diluted in 8% purified human serum albumin (HSA) (Calbiochem). The final concentration of animal serum in the assay was 50% and the final concentration of purified human serum albumin in the assay was 4%; the concentrations of all other components were identical to those described for susceptibility testing.
# [6] = test system: E. coli LBB925 (tolC mutant); assay: Antibacterial susceptibility (MIC), NCCLS broth microdilution; format: cell-based; settings: for MIC: Escherichia coli, read-out: Minimum inhibitory concentration, E. coli LBB925; for Minimum inhibitory concentration, E. coli LBB925: tolC mutant
# [7] = test system: S. aureus ATCC 13709 Novobiocin resistant mutant (bone infection); assay: Prophylactic efficacy in rat model of S. aureus bone infection; format: in vivo; settings: rat tibia 24 h postinfection, 3 days prior to infection
# Experimental: Specifically, a spontaneous Novobiocin resistant mutant strain of S. aureus ATCC 13709 (a clinical osteomyelitis isolate), was grown overnight at 37° C. in brain heart infusion broth (BHIB). After 16 h of growth, cells were subcultured into fresh BHIB and incubated for 4 to 5 h at 37° C. The cells were washed twice with phosphate-buffered saline (PBS) and resuspended in BHIB supplemented with 10% (vol./vol.) fetal bovine serum at a density of approximately 10^10 colony forming units (CFU)/ml (based upon turbidimetry). The suspension was aliquoted and a portion was used to check the CFU count. The culture was stored frozen (−80° C.) and was used without subculture. For use as an inoculum the culture was thawed, diluted in PBS and kept in an ice bath until it was used.
# Animals were infected as described by O'Reilly et al. (Antimicrobial Agents and Chemotherapy (1992), 36(12): 2693-97) to generate the bone infection. Female CD rats (age, 57 to 70 days; n=5/group; Charles River, St-Constant, Canada) were anaesthetized by isofluorane before and during the surgery. Following complete induction of anesthesia, the rat was placed ventral side up and hair was shaved from the surgical site. The skin over the leg was cleaned and disinfected (proviodine-ethanol 70%). A longitudinal incision below the knee joint was made in the sagital plane. The incision was made over the bone below the “knee joint” (tibia head or condyle) but not completely extending to the ankle. A high speed drill fitted with a 2 mm bulb bit was used to drill a hole into the medullar cavity of the tibia. Rats were injected intra-tibially with 0.05 ml 5% sodium morrhuate (sclerosing agent) and then with 0.05 ml of S. aureus suspension (ca. 2×10^7 CFU/rat). The hole was sealed by applying a small amount of dry dental cement which immediately absorbs fluids and adheres to the site. The wound was closed using 3 metal skin clips. Moxifloxacin (as a positive control) was injected once at 10 mg/kg intravenously 1 h postinfection in saline, while the Rifamycin derived prodrugs (prepared in 0.9% saline) were injected at the dose indicated in Table 3 as a single intravenous bolus at different time points prior to the infection.
# Infected rats were sacrificed by CO2 asphyxiation 24 h postinfection to monitor the bacterial CFU count. Infected tibiae were removed, dissected free of soft tissue, and weighed. The bones were ground, resuspended in 5 ml 0.9% NaCl, serially diluted and processed for quantitative cultures. For compounds 50, 68 and 81, 1 ml of the 0.9% NaCl solution was added to 50 mg of charcoal before serial dilutions. Treatment efficacy was measured in terms of Log viable bacteria (Log CFU per gram of bone). […] The limit of detection is 2 Log CFU. […] Differences were considered significant when the P value was <0.05 when comparing treated infected animals to the untreated infected ones. The doses used, the amount of time separating the treatment from the time of infection and the treatment outcomes are shown in Table 3.
# [8] = Regeneration of drug from bone powder-bound prodrug; format: in vitro ADME; settings: for % Conversion of bone-bound prodrug to parent drug: 24 h incubation, 37° C.; for Impact of the medium on the rate of regeneration of parent drug (in words): serum compared to PBS
# Experimental: Amounts of parent drug “regenerated” from the phosphonated prodrug were measured as follows. Washed bone powder-bound prodrugs from the above experiment were resuspended in 400 μL PBS+2% DMSO or in 400 μL 50% (v/v in PBS+2% DMSO) human or rat serum. The suspension was incubated overnight at 37° C., centrifuged at 13,000 rpm for 2 min and the supernatant was recovered. The amount of regenerated parent drug in the supernatant was determined by measurements using the microbiological assay that was previously described for the prodrugs themselves. The amount of prodrug was deduced from standard curves of known amounts of parent drug that were used as reference for each experiment.
# [9] = read-out: Minimum inhibitory concentration, S. aureus ATCC 13709 + 50% Human Serum
# [10] = read-out: Minimum inhibitory concentration, S. aureus ATCC 13709 + 50% Mouse Serum
# [11] = read-out: Minimum inhibitory concentration, S. aureus ATCC 13709 + 50% Rat Serum
# [12] = single dose 20 mg/kg parent drug equivalent
compound,measurement,setting,value
"CO[C@H]1/C=C/O[C@@]2(C)Oc3c(C)c(O)c4c(=O)c(c5oc6cc(N7CCN(CC(C)C)CC7)cc(O)c6nc-5c4c3C2=O)NC(=O)/C(C)=C\C=C\[C@H](C)[C@H](O)[C@@H](C)[C@@H](O)[C@@H](C)[C@H](OC(C)=O)[C@@H]1C [Rifalazil, 1′,4-Didehydro-1-deoxy-1,4-dihydro-3′-hydroxy-5′-[4-(2-methylpropyl)-1-piperazinyl]-1-oxorifamycin VIII, reference compound]",MIC,S. aureus ATCC 13709 [1],0.001 µg/mL
same,MIC,[2],0.001 µg/mL
same,MIC,[3],0.001 µg/mL
same,MIC,S. aureus RN4220,0.00048 µg/mL
same,MIC,[4],16 µg/mL
same,MIC,S. aureus ATCC 13709 [5]; [9],0.032 µg/mL
same,MIC,S. aureus ATCC 13709 [5]; [10],0.032 µg/mL
same,MIC,S. aureus ATCC 13709 [5]; [11],0.0078 µg/mL
same,MIC,[6],16 µg/mL
same,Measured bacterial titer,[7]; single dose 10 mg/kg parent drug equivalent,2.21 ± 0.34 Log CFU/g of bone
same,Measured bacterial titer,[7]; [12],4.08 ± 1.53^a Log CFU/g of bone
CO[C@H]1/C=C/O[C@@]2(C)Oc3c(C)c(O)c4c(=O)c(c5oc6cc(N7CCC(OC(=O)CCC(=O)NC(P(=O)(O)O)P(=O)(O)O)CC7)cc(O)c6nc-5c4c3C2=O)NC(=O)/C(C)=C\C=C\[C@H](C)[C@H](O)[C@@H](C)[C@@H](O)[C@@H](C)[C@H](OC(C)=O)[C@@H]1C [Compound 68],"Minimum inhibitory concentration, S. aureus ATCC 13709",S. aureus ATCC 13709 [1],0.0625 µg/mL
same,"Minimum inhibitory concentration, S. aureus ATCC 43300",[2],0.0625 µg/mL
same,"Minimum inhibitory concentration, S. aureus BK85",[3],0.25 µg/mL
same,"Minimum inhibitory concentration, S. aureus RN4220",S. aureus RN4220,0.25 µg/mL
same,Activity against the Rifampicin resistant variant of S. aureus ATCC13709 (in words),[4],complete lack of activity
same,"Minimum inhibitory concentration, S. aureus ATCC 13709 variant",[4],>128 µg/mL
same,"Minimum inhibitory concentration, S. aureus ATCC 13709 + 50% Human Serum",S. aureus ATCC 13709 [5],1 µg/mL
same,"Minimum inhibitory concentration, S. aureus ATCC 13709 + 50% Mouse Serum",S. aureus ATCC 13709 [5],1 µg/mL
same,"Minimum inhibitory concentration, S. aureus ATCC 13709 + 50% Rat Serum",S. aureus ATCC 13709 [5],2 µg/mL
same,"Minimum inhibitory concentration, E. coli LBB925",[6],64 µg/mL
same,Regeneration of parent drug once bound to bone (in words),[8],only slightly regenerates
same,% Conversion of bone-bound prodrug to parent drug,[8]; 50% Rat Serum,0.24%
same,% Conversion of bone-bound prodrug to parent drug,[8]; PBS,0.02%
same,Impact of the medium on the rate of regeneration of parent drug (in words),[8],significant acceleration
same,Measured bacterial titer,[7]; [12],4.86 ± 0.66 Log CFU/g of bone
"CO[C@H]1/C=C/O[C@@]2(C)Oc3c(C)c(O)c4c(=O)c(c5oc6cc(N7CCC(O)CC7)cc(O)c6nc-5c4c3C2=O)NC(=O)/C(C)=C\C=C\[C@H](C)[C@H](O)[C@@H](C)[C@@H](O)[C@@H](C)[C@H](OC(C)=O)[C@@H]1C [Compound 63, 1′,4-Didehydro-1-deoxy-1,4-dihydro-3′-hydroxy-5′-[4-hydroxy-1-piperidinyl]-1-oxorifamycin VIII]",MIC,S. aureus ATCC 13709 [1],0.00048 µg/mL
same,MIC,[2],0.00048 µg/mL
same,MIC,[3],0.00048 µg/mL
same,MIC,S. aureus RN4220,0.00048 µg/mL
same,MIC,[4],2 µg/mL
same,MIC,S. aureus ATCC 13709 [5]; [9],0.0078 µg/mL
same,MIC,S. aureus ATCC 13709 [5]; [10],0.0156 µg/mL
same,MIC,S. aureus ATCC 13709 [5]; [11],0.032 µg/mL
same,MIC,[6],8 µg/mL
same,Measured bacterial titer,[7]; [12],2.84 ± 0.93 Log CFU/g of bone
CCN(CC)CC.CCN(CC)CC.CO[C@H]1/C=C/O[C@@]2(C)Oc3c(C)c(O)c4c(c3C2=O)C2=NC3(CCN(CC(C)C)CC3)N(C(=O)OCOC(=O)CCCC(P(=O)(O)O)P(=O)(O)O)C2=C(NC(=O)/C(C)=C\C=C\[C@H](C)[C@H](O)[C@@H](C)[C@@H](O)[C@@H](C)[C@H](OC(C)=O)[C@@H]1C)C4=O [Compound 50],"Minimum inhibitory concentration, S. aureus ATCC 13709",S. aureus ATCC 13709 [1],0.25 µg/mL
same,"Minimum inhibitory concentration, S. aureus ATCC 43300",[2],0.25 µg/mL
same,"Minimum inhibitory concentration, S. aureus BK85",[3],0.25 µg/mL
same,"Minimum inhibitory concentration, S. aureus RN4220",S. aureus RN4220,0.25 µg/mL
same,Activity against the Rifampicin resistant variant of S. aureus ATCC13709 (in words),[4],complete lack of activity
same,"Minimum inhibitory concentration, S. aureus ATCC 13709 variant",[4],>128 µg/mL
same,Impact of serum on the MICs (in words),S. aureus ATCC 13709 [5],no impact
same,"Minimum inhibitory concentration, S. aureus ATCC 13709 + 50% Human Serum",S. aureus ATCC 13709 [5],0.125 µg/mL
same,"Minimum inhibitory concentration, S. aureus ATCC 13709 + 50% Mouse Serum",S. aureus ATCC 13709 [5],0.125 µg/mL
same,"Minimum inhibitory concentration, S. aureus ATCC 13709 + 50% Rat Serum",S. aureus ATCC 13709 [5],0.032 µg/mL
same,"Minimum inhibitory concentration, E. coli LBB925",[6],16 µg/mL
same,% Conversion of bone-bound prodrug to parent drug,[8]; 50% Rat Serum,2.68%
same,% Conversion of bone-bound prodrug to parent drug,[8]; PBS,2.65%
same,Impact of the medium on the rate of regeneration of parent drug (in words),[8],not significantly impacted
same,Measured bacterial titer,[7]; [12],6.31 ± 0.82 Log CFU/g of bone
